{"source": "ChEMBL document CHEMBL1201862", "about": "“PubChem BioAssay data set” (2004)", "key": {"[1]": {"target": "T1, Runt-related transcription factor 1/Core-binding factor subunit beta (Homo sapiens, UniProt Q01196+Q13951)", "T1 sequence (Q01196 whole entry, the tested form may be a part)": "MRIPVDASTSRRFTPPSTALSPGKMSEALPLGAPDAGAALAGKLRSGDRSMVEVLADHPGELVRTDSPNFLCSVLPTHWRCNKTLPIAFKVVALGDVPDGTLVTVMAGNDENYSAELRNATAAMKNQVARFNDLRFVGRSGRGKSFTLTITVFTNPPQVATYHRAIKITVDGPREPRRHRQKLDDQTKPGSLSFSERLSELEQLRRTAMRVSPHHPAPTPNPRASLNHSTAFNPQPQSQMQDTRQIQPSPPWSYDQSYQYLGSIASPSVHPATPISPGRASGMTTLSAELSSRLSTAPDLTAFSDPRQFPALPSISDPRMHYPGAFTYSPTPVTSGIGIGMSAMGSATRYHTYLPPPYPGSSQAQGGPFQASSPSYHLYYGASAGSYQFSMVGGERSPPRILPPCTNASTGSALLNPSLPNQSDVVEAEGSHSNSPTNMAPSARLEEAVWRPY", "T1 sequence (Q13951 whole entry, the tested form may be a part)": "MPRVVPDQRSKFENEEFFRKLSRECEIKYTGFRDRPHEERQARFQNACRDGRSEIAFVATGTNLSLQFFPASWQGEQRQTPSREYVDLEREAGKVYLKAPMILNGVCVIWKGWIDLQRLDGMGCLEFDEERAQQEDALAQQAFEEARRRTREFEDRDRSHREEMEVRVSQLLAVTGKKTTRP", "experiment": "Runt domain/CBFb-SMMHC interaction disruptors – biochemical, TR-FRET (AID 1438)", "assay_type": "protein assay"}, "[2]": {"target": "T1, Runt-related transcription factor 1/Core-binding factor subunit beta", "experiment": "disruptors of Runt domain/CBFb-SMMHC interaction – biochemical, FRET, Cerulean-Runt, Venus-CBFb-SMMHC, uHTS, […] (AID 1434)", "assay_type": "protein assay"}, "BJ [3]": {"system": "BJ", "experiment": "cells", "assay_type": "functional, cell-based", "settings": "Homo sapiens"}, "[4]": {"target": "E3 ubiquitin-protein ligase Mdm2 (Homo sapiens, UniProt Q00987)", "sequence (Q00987 whole entry)": "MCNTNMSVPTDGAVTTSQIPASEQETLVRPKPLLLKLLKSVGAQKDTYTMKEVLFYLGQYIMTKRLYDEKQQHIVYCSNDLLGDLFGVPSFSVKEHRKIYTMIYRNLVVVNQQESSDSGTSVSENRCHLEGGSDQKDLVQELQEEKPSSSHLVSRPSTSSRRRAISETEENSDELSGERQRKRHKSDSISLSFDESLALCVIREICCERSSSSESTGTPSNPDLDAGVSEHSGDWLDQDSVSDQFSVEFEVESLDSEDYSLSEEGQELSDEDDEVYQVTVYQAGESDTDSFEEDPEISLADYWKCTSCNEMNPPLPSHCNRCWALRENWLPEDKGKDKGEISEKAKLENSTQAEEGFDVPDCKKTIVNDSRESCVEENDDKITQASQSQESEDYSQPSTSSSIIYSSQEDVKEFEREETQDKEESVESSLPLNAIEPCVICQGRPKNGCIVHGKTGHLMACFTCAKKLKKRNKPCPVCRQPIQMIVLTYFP", "experiment": "MDM2-luc reporter signal enhancers, multi-concentration potency testing, MDM2 ubiquitin-protein ligase inhibitor program, whole-cell format, luminescence detection, 384-well microplate (AID 1394);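 further: MDM2 E3 inhibitors raise luminescence so EC50 is for signal enhancement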", "assay_type": "functional"}, "[5]": {"target": "T2, Hepatocyte nuclear factor 4-alpha (Homo sapiens, UniProt P41235)", "T2 sequence (P41235 whole entry)": "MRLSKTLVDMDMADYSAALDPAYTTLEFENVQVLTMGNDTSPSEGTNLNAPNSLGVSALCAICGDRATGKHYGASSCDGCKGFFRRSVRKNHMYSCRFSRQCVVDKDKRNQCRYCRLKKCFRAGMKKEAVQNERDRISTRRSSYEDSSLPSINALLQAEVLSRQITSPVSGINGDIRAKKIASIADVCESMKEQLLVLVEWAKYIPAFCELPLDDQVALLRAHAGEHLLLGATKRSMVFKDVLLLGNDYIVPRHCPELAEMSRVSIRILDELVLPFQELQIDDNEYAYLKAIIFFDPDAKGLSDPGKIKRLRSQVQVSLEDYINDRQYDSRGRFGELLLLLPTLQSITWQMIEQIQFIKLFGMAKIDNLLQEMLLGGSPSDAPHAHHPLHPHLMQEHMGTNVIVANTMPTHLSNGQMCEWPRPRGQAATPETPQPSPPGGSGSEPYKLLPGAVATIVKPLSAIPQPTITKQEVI", "assay_type": "functional, cell-based"}, "BJ [6]": {"system": "BJ", "experiment": "BJ-TERT fibroblast viability loss – cell-based, RAS-independent, luminescence, dose response (AID 1933)", "assay_type": "functional", "settings": "Homo sapiens"}, "[7]": {"target": "E3 ubiquitin-protein ligase Mdm2/Protein Mdm4 (Homo sapiens, UniProt O15151+Q00987)", "sequence (Q00987 whole entry)": "as the sequence (Q00987 whole entry) above", "sequence (O15151 whole entry)": "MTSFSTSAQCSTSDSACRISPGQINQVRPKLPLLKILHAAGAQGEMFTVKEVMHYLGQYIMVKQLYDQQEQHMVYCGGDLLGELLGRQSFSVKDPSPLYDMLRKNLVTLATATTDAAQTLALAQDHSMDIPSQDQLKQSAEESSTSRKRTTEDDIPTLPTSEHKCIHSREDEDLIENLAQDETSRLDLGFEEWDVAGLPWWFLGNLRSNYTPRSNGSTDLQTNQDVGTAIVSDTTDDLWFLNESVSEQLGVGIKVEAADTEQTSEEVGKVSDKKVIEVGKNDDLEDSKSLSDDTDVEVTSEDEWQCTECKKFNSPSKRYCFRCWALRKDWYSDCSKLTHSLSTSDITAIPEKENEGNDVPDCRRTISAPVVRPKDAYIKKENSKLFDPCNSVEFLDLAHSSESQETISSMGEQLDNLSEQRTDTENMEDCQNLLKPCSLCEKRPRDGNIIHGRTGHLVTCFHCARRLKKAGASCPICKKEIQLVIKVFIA", "experiment": "disruption of Mdm2/MdmX protein binding – luminescence detection, dose response (AID 504593)", "assay_type": "functional"}, "BJ [8]": {"system": "BJ", "experiment": "BJ-TERT-LT-ST fibroblast viability loss – cell-based, RAS-independent, luminescence, dose response (AID 1935);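 further: BJ fibroblasts immortalized with TERT plus LT and ST oncogenes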", "assay_type": "functional", "settings": "Homo sapiens"}, "INS1": {"system": "INS1", "experiment": "INS-1E survival protection against cytokine death – cell-based, luminescence, retest, dose response (AID 449756);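 further: cell death triggered by IL-1 beta plus TNF-alpha plus IFN-gamma mixture; protective hits raise ATP signal compared with cytokine alone wells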", "assay_type": "functional", "settings": "Rattus norvegicus"}, "HeLa": {"system": "HeLa", "experiment": "Cytotoxicity counterscreen assay for transcriptional activators of heat shock protein 70 (Hsp70). [Related pubchem assays: 1203, 1252 ]", "assay_type": "functional", "settings": "Homo sapiens"}, "[9]": {"experiment": "HEK-293T viability loss after treatment – luminescence, T-cell screen hits, cytotoxicity control for TCR NF-kB inhibitor project, dose response (AID 489026);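 further: cells exposed to compound about 14 hours before the viability readout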", "assay_type": "functional, cell-based"}, "[10]": {"experiment": "DRD fibroblast viability loss – cell-based, non-viral oncogenic, luminescence, dose response (AID 1934)", "assay_type": "functional", "settings": "Homo sapiens"}, "[11]": {"experiment": "luciferase reporter signal suppression in cells – H4 neuroglioma cells, luminescence, dose response (AID 1990)", "assay_type": "functional, cell-based"}, "[12]": {"experiment": "Luminescent dose response cell-based high throughput screening assay for inhibitors of the Janus kinase 2 mutant JAK2V617F. [Related pubchem assays: 1446 (Primary screen.), 1521 (Confirmation assay.), 1486 (Counter screen.)]", "assay_type": "functional"}, "[13]": {"experiment": "alpha-synuclein stem-loop luciferase translation blockers – H4 neuroglioma cells, luminescence, confirmation (AID 1988)", "assay_type": "functional, cell-based"}, "[14]": {"experiment": "Luminescence Cell-Based Dose Response HTS to Identify Inhibitors of 5'UTR Stem-Loop Driven Prion Protein mRNA Translation in H4 Neuroglioblastoma Cells. [Related pubchem assays: 1827 (Project Summary), 1813 (Primary HTS)]", "assay_type": "functional"}, "BJ [15]": {"system": "BJ", "experiment": "growth inhibition of engineered Ras-driven BJ cells – cell-based, alamar blue fluorescence, cherrypicked samples, dose response (AID 2631)", "assay_type": "functional", "settings": "Homo sapiens"}, "[16]": {"target": "Dual specificity protein phosphatase 3 (Homo sapiens, UniProt P51452)", "sequence (P51452 whole entry)": "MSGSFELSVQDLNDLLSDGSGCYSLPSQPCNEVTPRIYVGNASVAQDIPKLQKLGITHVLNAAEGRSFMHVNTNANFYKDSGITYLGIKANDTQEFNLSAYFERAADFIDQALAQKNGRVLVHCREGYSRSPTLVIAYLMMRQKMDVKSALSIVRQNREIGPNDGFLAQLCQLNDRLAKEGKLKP", "experiment": "SAR VHR1 Fluorescent Assay for In Vitro dose response studies Set 2. [Related pubchem assays (depositor defined):AID1654, AID1661, AID1878]", "assay_type": "functional"}, "[17]": {"target": "T3, Tyrosine-protein phosphatase non-receptor type 7 (Homo sapiens, UniProt P35236)", "T3 sequence (P35236 whole entry)": "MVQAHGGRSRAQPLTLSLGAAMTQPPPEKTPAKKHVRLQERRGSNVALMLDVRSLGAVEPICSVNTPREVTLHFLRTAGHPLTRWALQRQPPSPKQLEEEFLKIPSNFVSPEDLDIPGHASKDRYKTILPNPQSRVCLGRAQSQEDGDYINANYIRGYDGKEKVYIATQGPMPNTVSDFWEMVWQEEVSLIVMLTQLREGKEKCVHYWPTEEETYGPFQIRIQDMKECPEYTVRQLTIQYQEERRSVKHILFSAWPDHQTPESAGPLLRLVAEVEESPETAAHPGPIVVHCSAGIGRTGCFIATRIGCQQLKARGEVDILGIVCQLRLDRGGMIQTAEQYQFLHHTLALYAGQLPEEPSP", "experiment": "SAR analysis of chemical inhibitors of HePTP using a Fluorescent assay - Set 2. [Related pubchem assays (depositor defined):AID1059, AID1077, AID1661, AID2085, AID521]", "assay_type": "functional"}, "Hexokinase": {"target": "Hexokinase (Trypanosoma brucei, UniProt Q38C41)", "sequence (Q38C41 whole entry)": "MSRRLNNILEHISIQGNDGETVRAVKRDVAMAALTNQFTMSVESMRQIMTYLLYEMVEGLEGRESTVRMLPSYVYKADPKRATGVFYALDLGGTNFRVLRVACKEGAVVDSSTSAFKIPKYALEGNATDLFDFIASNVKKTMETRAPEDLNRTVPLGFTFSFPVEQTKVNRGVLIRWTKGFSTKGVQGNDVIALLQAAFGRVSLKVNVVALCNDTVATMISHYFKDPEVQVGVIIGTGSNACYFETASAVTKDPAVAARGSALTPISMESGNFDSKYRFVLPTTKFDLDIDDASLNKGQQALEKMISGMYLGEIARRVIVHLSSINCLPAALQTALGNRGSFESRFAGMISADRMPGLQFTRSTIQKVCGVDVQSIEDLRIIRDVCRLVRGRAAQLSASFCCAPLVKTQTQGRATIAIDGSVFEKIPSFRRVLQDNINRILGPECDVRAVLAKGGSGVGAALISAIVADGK", "experiment": "Confirmation assay for inhibitors of Trypanosoma brucei hexokinase 1-Analogue-first series. [Related pubchem assays (depositor defined):AID1430, AID1632, AID2516, AID2560, AID2579, AID2600, AID449725, AID492951]", "assay_type": "functional"}, "Cannabinoid receptor 2 [18]": {"target": "T4, Cannabinoid receptor 2 (Homo sapiens, UniProt P34972)", "T4 sequence (P34972 whole entry)": "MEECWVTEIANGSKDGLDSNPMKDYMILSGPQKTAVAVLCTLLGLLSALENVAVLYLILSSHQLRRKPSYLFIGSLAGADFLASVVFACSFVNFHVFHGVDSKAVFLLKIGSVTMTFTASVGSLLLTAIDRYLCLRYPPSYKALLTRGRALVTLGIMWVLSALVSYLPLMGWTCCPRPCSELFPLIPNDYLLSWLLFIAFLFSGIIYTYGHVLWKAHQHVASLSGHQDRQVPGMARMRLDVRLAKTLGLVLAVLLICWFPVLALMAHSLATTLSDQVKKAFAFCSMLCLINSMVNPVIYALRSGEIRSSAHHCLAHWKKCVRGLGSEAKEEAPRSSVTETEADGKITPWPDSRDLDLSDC", "experiment": "SAR analysis of agonists of the Cannabinoid Receptor 2 using an Image-Based Assay - Set 2. [Related pubchem assays (depositor defined):AID1961, AID1965]", "assay_type": "functional"}, "Cannabinoid receptor 2 [19]": {"target": "T4, Cannabinoid receptor 2", "experiment": "SAR analysis of antagonists of the Cannabinoid Receptor 2 using an Image-Based Assay - Set 2. [Related pubchem assays (depositor defined):AID1961, AID1965]", "assay_type": "functional"}, "Cannabinoid receptor 1 [20]": {"target": "T5, Cannabinoid receptor 1 (Homo sapiens, UniProt P21554)", "T5 sequence (P21554 whole entry)": "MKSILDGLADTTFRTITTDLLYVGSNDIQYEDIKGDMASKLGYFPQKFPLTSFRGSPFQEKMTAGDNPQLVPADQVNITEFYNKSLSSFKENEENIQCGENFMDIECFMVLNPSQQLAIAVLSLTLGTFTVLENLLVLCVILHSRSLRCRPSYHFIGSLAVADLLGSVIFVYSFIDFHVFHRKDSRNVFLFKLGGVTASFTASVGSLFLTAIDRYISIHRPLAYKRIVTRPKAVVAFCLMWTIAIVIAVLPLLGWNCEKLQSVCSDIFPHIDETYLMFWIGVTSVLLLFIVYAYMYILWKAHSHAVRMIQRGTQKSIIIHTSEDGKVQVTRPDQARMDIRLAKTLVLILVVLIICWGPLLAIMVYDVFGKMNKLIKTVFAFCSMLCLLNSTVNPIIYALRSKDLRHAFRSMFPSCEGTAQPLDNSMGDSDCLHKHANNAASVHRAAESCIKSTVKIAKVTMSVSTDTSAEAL", "experiment": "SAR analysis of agonists of the Cannabinoid Receptor 1 using an Image-Based Assay - Set 3. [Related pubchem assays (depositor defined):AID1961, AID1965]", "assay_type": "functional"}, "[21]": {"target": "T6, G-protein coupled receptor 35 (Homo sapiens, UniProt Q9HC97)", "T6 sequence (Q9HC97 whole entry)": "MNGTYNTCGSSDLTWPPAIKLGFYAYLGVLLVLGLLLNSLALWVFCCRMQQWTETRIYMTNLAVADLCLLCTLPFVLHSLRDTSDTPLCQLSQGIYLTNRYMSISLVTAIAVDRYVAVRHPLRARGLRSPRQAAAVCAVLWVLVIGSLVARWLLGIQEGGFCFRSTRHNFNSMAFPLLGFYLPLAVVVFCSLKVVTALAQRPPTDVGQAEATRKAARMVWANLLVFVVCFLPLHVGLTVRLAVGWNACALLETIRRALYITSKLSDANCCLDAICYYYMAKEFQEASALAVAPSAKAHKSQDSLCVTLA", "experiment": "SAR analysis of Agonists of the GPR35 Receptor using an Image-Based Assay - Set 3. [Related pubchem assays (depositor defined):AID1961, AID1965]", "assay_type": "functional"}, "[22]": {"target": "T6, G-protein coupled receptor 35", "experiment": "SAR analysis of Antagonists of the GPR35 Receptor using an Image-Based Assay - Set 4. [Related pubchem assays (depositor defined):[…]]", "assay_type": "functional"}, "Cannabinoid receptor 1 [23]": {"target": "T5, Cannabinoid receptor 1", "experiment": "SAR analysis of antagonists of the Cannabinoid Receptor 1 using an Image-Based Assay - Set 3. [Related pubchem assays (depositor defined):AID1961, AID1965]", "assay_type": "functional"}, "[24]": {"target": "G-protein coupled receptor 55 (Homo sapiens, UniProt Q9Y2T6)", "sequence (Q9Y2T6 whole entry)": "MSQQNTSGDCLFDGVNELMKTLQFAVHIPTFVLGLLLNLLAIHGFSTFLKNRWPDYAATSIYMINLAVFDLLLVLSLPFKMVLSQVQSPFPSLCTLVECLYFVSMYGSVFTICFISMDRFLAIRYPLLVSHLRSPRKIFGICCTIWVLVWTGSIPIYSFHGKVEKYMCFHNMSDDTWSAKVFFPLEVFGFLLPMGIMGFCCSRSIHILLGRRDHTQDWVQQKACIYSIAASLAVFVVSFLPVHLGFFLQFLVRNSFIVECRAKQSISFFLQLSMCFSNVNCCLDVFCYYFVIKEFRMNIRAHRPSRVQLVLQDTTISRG", "experiment": "SAR analysis of selective Agonists of GPR55 using an Image-Based Assay - Set 2. [Related pubchem assays (depositor defined):AID1961, AID1965]", "assay_type": "functional"}, "[25]": {"target": "T7, E3 ubiquitin-protein ligase XIAP (Homo sapiens, UniProt P98170)", "T7 sequence (P98170 whole entry)": "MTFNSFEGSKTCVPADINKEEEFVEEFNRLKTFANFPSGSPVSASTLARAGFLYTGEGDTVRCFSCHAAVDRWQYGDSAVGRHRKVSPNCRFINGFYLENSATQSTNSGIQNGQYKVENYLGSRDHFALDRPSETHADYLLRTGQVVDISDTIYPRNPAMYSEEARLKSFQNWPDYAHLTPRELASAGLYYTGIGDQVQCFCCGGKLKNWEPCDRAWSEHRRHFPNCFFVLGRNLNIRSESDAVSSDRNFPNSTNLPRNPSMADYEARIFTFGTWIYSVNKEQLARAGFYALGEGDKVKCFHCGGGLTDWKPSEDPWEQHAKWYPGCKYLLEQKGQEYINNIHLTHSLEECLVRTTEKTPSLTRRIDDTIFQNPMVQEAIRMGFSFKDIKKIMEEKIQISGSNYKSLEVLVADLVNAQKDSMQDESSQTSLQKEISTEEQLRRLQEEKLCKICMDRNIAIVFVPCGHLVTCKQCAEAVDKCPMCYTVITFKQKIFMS", "experiment": "small molecules displacing peptide from XIAP – biochemical, IAP family, fluorescence polarization (AID 1018)", "assay_type": "functional"}, "[26]": {"target": "T7, E3 ubiquitin-protein ligase XIAP", "experiment": "Counter Screen using XIAP-Bir3 for Chemical Antagonists of Bir1/2 domains of IAP-family anti-apoptotic proteins. [Related pubchem assays (depositor defined):AID1018, AID1449, AID1514, AID1638, AID1749, AID1750, AID488957, AID488963]"}}, "note": "Activity calls are given as the source filed them.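 Wherever CC50 is given: cells exposed to compound for 16 hours before readout.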"}
{"smiles": "N=c1c(C(=O)NCc2ccc(F)cc2)cc2c(=O)n3ccccc3nc2n1Cc1ccco1", "values": [{"measurement": "IC50", "setting": "[1]", "value": "43.5 µM (active)"}, {"measurement": "IC50", "setting": "[2]", "value": "3.78 µM (active)"}]}
{"smiles": "CCN1C/C(=C/c2ccc(OC)c(O)c2)C(=O)/C(=C/c2ccc(OC)c(O)c2)C1", "values": [{"measurement": "EC50", "setting": "BJ [3]", "value": "1.35 µM (inconclusive)"}, {"measurement": "EC50", "setting": "[4]", "value": "380 nM (active)"}, {"measurement": "IC50", "setting": "[5]", "value": "12.9 µM (inactive)"}, {"measurement": "EC50", "setting": "BJ [6]", "value": "1.78 µM (inconclusive)"}, {"measurement": "IC50", "setting": "[7]", "value": "8.47 µM (active)"}, {"measurement": "EC50", "setting": "BJ [8]", "value": "1.25 µM (inconclusive)"}, {"measurement": "AC50", "setting": "INS1", "value": "4.09 µM (active)"}, {"measurement": "CC50", "setting": "HeLa", "value": "> 3.67 µM (not active)"}, {"measurement": "IC50", "setting": "[9]", "value": "> 80 µM (inactive)"}, {"measurement": "EC50", "setting": "[10]", "value": "1.34 µM (active)"}, {"measurement": "EC50", "setting": "[11]", "value": "374 nM (inconclusive)"}, {"measurement": "IC50", "setting": "[12]", "value": "670 nM (active)"}, {"measurement": "EC50", "setting": "[13]", "value": "4.84 µM (active)"}, {"measurement": "EC50", "setting": "[14]", "value": "221 nM (active)"}, {"measurement": "EC50", "setting": "BJ [15]", "value": "380 nM (active)"}]}
{"smiles": "COc1cccc(CN2CCN(C(=S)Nc3ccc(S(N)(=O)=O)cc3)CC2)c1", "values": [{"measurement": "IC50", "setting": "[16]", "value": "> 100 µM (inactive)"}, {"measurement": "IC50", "setting": "[17]", "value": "> 100 µM (inactive)"}]}
{"smiles": "COc1ccc(C(=O)Nc2cc(Cl)c(C)cc2C(=O)O)cc1", "values": [{"measurement": "IC50", "setting": "Hexokinase", "value": "10.3 µM (active)"}]}
{"smiles": "Cc1ccccc1N1CCN(C(=O)c2cc(S(=O)(=O)N3CCCCC3)ccc2N2CCCC2)CC1", "values": [{"measurement": "EC50", "setting": "Cannabinoid receptor 2 [18]", "value": "> 32 µM (inactive)"}, {"measurement": "IC50", "setting": "Cannabinoid receptor 2 [19]", "value": "> 32 µM (inactive)"}, {"measurement": "EC50", "setting": "Cannabinoid receptor 1 [20]", "value": "> 32 µM (inactive)"}, {"measurement": "EC50", "setting": "[21]", "value": "> 32 µM (inactive)"}, {"measurement": "IC50", "setting": "[22]", "value": "> 32 µM (inactive)"}, {"measurement": "IC50", "setting": "Cannabinoid receptor 1 [23]", "value": "> 32 µM (inactive)"}, {"measurement": "EC50", "setting": "[24]", "value": "> 32 µM (inactive)"}]}
{"smiles": "CC(C)CNS(=O)(=O)c1ccc(CCC(=O)N2CCN(Cc3ccccc3)CC2)cc1", "values": [{"measurement": "IC50", "setting": "[25]", "value": "> 100 µM (not active)"}, {"measurement": "IC50", "setting": "[26]", "value": "> 100 µM (inactive)"}]}
